pIC50: −log10 of the molar value.
Columns and labels:
Danio rerio [1] = species on record: Danio rerio; experiment: Antiangiogenic activity against wild AB-type transgenic zebrafish embryo expressing green fluorescent protein-labeled VEGFR2 assessed as inhibition of growth of intersegmental vessels treated at 24 hrs post fertilization measured after 48 hrs by alkaline phosphatase staining; format: functional, organism-based
A549 = experiment: Cytotoxicity against human A549 cells assessed as inhibition of cell viability after 48 hrs by MTT assay; format: functional, cell-based; conditions: A549, 48 h
Danio rerio [2] = species on record: Danio rerio; experiment: Antiangiogenic activity against wild AB-type transgenic zebrafish embryo expressing green fluorescent protein-labeled VEGFR2 assessed as inhibition of growth of intersegmental vessels at 33.6 uM treated at 24 hrs post fertilization measured after 48 hrs by alkaline phosphatase staining; format: functional

| Compound | pIC50 (Danio rerio [1]) | pIC50 (A549) | growth inhibition (GI) (Danio rerio [2]) [%] | growth inhibition (GI) (Danio rerio [1]) |
| --- | --- | --- | --- | --- |
| Clc1ccc(Nc2nnc(Cc3ccncc3)c3ccccc23)cc1 [VATALANIB] | 6.64 |  |  |  |
| C=C1CC[C@H]2[C@@H]([C@@H]3[C@@H]1C1=C(C[C@](C)(O)C1=O)C(=O)[C@H]3C)C2(C)C [SIKKIMENOID C] |  | < 5.00 |  |  |
| C=C1CC[C@H]2[C@@H]([C@@H]3[C@@H]1C1=C(C[C@@](C)(O)C1=O)C(=O)[C@H]3C)C2(C)C [SIKKIMENOID D] |  | < 5.00 |  |  |
| C=C1CC[C@H]2[C@@H]([C@@H]3[C@@H]1C1=C(C[C@@H](C)C1=O)C(=O)[C@H]3C)C2(C)C [SIKKIMENOID B] | 4.37 | < 5.00 | 41.1 | Dose-dependent effect |
| C=C1CC[C@H]2[C@@H]([C@@H]3[C@@H]1C1=C(C[C@H](C)C1=O)C(=O)[C@H]3C)C2(C)C [SIKKIMENOID A] |  | < 5.00 |  |  |
